Experimental data reported in patent publication US20170045513A1, “METHODS OF DIAGNOSING CELIAC DISEASE USING IP-10” (ImmusanT, Inc., priority 2014, published 2017).
Non-standard residues stand in square brackets, D forms with d. pGlu = O=C1CC[C@@H](C(=O)O)N1

Tests used:
Type in all cases: cell-based, human
gluten-reactive T cells [1] = test: Cytokine release assays taken together (IFNγ ELISpot, whole blood IFNγ and IP-10, in-tube IFNγ ELISA); conditions: blood collected after oral gluten challenge
How it was run: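 Whole blood with peptides (P3 0.05-50 μg/mL; P13/P14 0.025-25 μM; […]), 24 h, 37 °C; plasma IFNγ/IP-10 by multiplex beads. Tube assay: 1 mL blood with P3 or CEF, 24 h, plasma IFNγ ELISA; elevated if >7.2 pg/mL above medium tube and SI >1.25. ELISpot overnight on fresh PBMC.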

gluten-reactive T cells [2] = test: 96-well plate whole blood cytokine release, IP-10 by MAGPIX multiplex bead assay; conditions: for Percent of maximal response to individual gluten peptides, IP-10: after oral gluten challenge; for IP-10 WB MAGPIX % max Mean: n = 10, blood after oral gluten challenge, individual peptides 5 μM (Peptide 2* of P14, Pepscan: 10 μg/mL (5.45 μM))
gluten-reactive T cells [3] = test: 96-well plate whole blood cytokine release, IFNγ by MAGPIX multiplex bead assay; conditions: for Percent of maximal response to individual gluten peptides, IFNg: after oral gluten challenge; for IFNγ WB MAGPIX % max Mean: n = 8, blood after oral gluten challenge, individual peptides 5 μM (Peptide 2* of P14, Pepscan: 10 μg/mL (5.45 μM))

Substance	activity relative to Peptide 14 in the cytokine release assays (gluten-reactive T cells [1])	Percent of maximal response to individual gluten peptides, IP-10 (gluten-reactive T cells [2]; Subject 1, Max. 2331 pg/mL)	Percent of maximal response to individual gluten peptides, IP-10 (gluten-reactive T cells [2]; Subject 2, Max. 3646 pg/mL)	Percent of maximal response to individual gluten peptides, IP-10 (gluten-reactive T cells [2]; Subject 3, Max. 9492 pg/mL)	Percent of maximal response to individual gluten peptides, IP-10 (gluten-reactive T cells [2]; Subject 4, Max. 9463 pg/mL)	Percent of maximal response to individual gluten peptides, IP-10 (gluten-reactive T cells [2]; Subject 5, Max. 9336 pg/mL)	Percent of maximal response to individual gluten peptides, IP-10 (gluten-reactive T cells [2]; Subject 6, Max. 5863 pg/mL)	Percent of maximal response to individual gluten peptides, IP-10 (gluten-reactive T cells [2]; Subject 7, Max. 2330 pg/mL)	Percent of maximal response to individual gluten peptides, IP-10 (gluten-reactive T cells [2]; Subject 8, Max. 4019 pg/mL)	Percent of maximal response to individual gluten peptides, IP-10 (gluten-reactive T cells [2]; Subject 9, Max. 8349 pg/mL)	Percent of maximal response to individual gluten peptides, IP-10 (gluten-reactive T cells [2]; Subject 10, Max. 8922 pg/mL)	IP-10 WB MAGPIX % max Mean (gluten-reactive T cells [2])	Percent of maximal response to individual gluten peptides, IFNg (gluten-reactive T cells [3]; Subject 2, Max. 116 pg/mL)	Percent of maximal response to individual gluten peptides, IFNg (gluten-reactive T cells [3]; Subject 3, Max. 799 pg/mL)	Percent of maximal response to individual gluten peptides, IFNg (gluten-reactive T cells [3]; Subject 4, Max. 136 pg/mL)	Percent of maximal response to individual gluten peptides, IFNg (gluten-reactive T cells [3]; Subject 6, Max. 72 pg/mL)	Percent of maximal response to individual gluten peptides, IFNg (gluten-reactive T cells [3]; Subject 7, Max. 17 pg/mL)	Percent of maximal response to individual gluten peptides, IFNg (gluten-reactive T cells [3]; Subject 8, Max. 47 pg/mL)	Percent of maximal response to individual gluten peptides, IFNg (gluten-reactive T cells [3]; Subject 9, Max. 67 pg/mL)	Percent of maximal response to individual gluten peptides, IFNg (gluten-reactive T cells [3]; Subject 10, Max. 229 pg/mL)	further results
(pE)QPFPQPELPYPYPQ-amide ([pGlu]QPFPQPELPYPYPQ-NH2; SMILES CC(C)C[C@H](NC(=O)[C@H](CCC(=O)O)NC(=O)[C@@H]1CCCN1C(=O)[C@H](CCC(N)=O)NC(=O)[C@@H]1CCCN1C(=O)[C@H](Cc1ccccc1)NC(=O)[C@@H]1CCCN1C(=O)[C@H](CCC(N)=O)NC(=O)[C@@H]1CCC(=O)N1)C(=O)N1CCC[C@H]1C(=O)N[C@@H](Cc1ccc(O)cc1)C(=O)N1CCC[C@H]1C(=O)N[C@@H](Cc1ccc(O)cc1)C(=O)N1CCC[C@H]1C(=O)N[C@@H](CCC(N)=O)C(N)=O) [Peptide 16]	no more than two-thirds as active as Peptide 14	16 % of max	45 % of max	≥ 100 % of max	69 % of max	35 % of max	4 % of max	800 % of max	1 % of max	60 % of max	11 % of max	42 % max	65 % of max	13 % of max	16 % of max	10 % of max	100 % of max	0 % of max	39 % of max	2 % of max	IFNγ WB MAGPIX % max Mean (gluten-reactive T cells [3]): 31 % max
(pE)QPFPQPEQPFPLQPEQP-amide ([pGlu]QPFPQPEQPFPLQPEQP-NH2; SMILES CC(C)C[C@H](NC(=O)[C@@H]1CCCN1C(=O)[C@H](Cc1ccccc1)NC(=O)[C@@H]1CCCN1C(=O)[C@H](CCC(N)=O)NC(=O)[C@H](CCC(=O)O)NC(=O)[C@@H]1CCCN1C(=O)[C@H](CCC(N)=O)NC(=O)[C@@H]1CCCN1C(=O)[C@H](Cc1ccccc1)NC(=O)[C@@H]1CCCN1C(=O)[C@H](CCC(N)=O)NC(=O)[C@@H]1CCC(=O)N1)C(=O)N[C@@H](CCC(N)=O)C(=O)N1CCC[C@H]1C(=O)N[C@@H](CCC(=O)O)C(=O)N[C@@H](CCC(N)=O)C(=O)N1CCC[C@H]1C(N)=O) [Peptide 6]	approximately one-half to one-fifth as active as Peptide 14	34 % of max	21 % of max	≥ 100 % of max	≥ 100 % of max	8 % of max	0 % of max	1 % of max	8 % of max	≥ 100 % of max	56 % of max	43 % max	58 % of max	10 % of max	54 % of max	4 % of max	2 % of max	6 % of max	69 % of max	20 % of max	IFNγ WB MAGPIX % max Mean (gluten-reactive T cells [3]): 28 % max
